Like-named read-outs stand apart in the source and are kept apart here.
What was measured:
Experiment in all cases: Kinase inhibitory activity profiling of RI-962@10 µM (406 kinases, Eurofins)
Format in all cases: biochemical
[1] = target: panel of human kinases (kinase named in endpoint) (Homo sapiens, UniProt O75460); conditions: 10 µM; read-out: Activity (%), IRE1(h)
Summary of the method: (§1)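 Radiometric filter-binding kinase assays: enzyme preincubated 15 min with compound in 8 mM MOPS pH 7.0, 0.2 mM EDTA, 250 μM peptide substrate, 10 mM magnesium acetate, 10 μM [γ-33P]-ATP. Reaction started with Mg/ATP, run 40 min at room temperature, stopped with phosphoric acid; 33P incorporation read by scintillation counting. Other kinases by similar protocols.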

[2] = target: panel of human kinases (kinase named in endpoint) (Homo sapiens, UniProt O75716); conditions: 10 µM; read-out: Activity (%), STK16(h)
Summary of the method: as §1

[3] = target: panel of human kinases (kinase named in endpoint) (Homo sapiens, UniProt O96017, R145W); conditions: 10 µM; read-out: Activity (%), CHK2(R145W)(h)
Summary of the method: as §1

[4] = target: panel of human kinases (kinase named in endpoint) (Homo sapiens, UniProt P00533, T790M); conditions: 10 µM; read-out: Activity (%), EGFR(T790M)(h)
Summary of the method: as §1

[5] = target: panel of human kinases (kinase named in endpoint) (Homo sapiens, UniProt P10721, D816H); conditions: 10 µM; read-out: Activity (%), cKit(D816H)(h)
Summary of the method: as §1

[6] = target: panel of human kinases (kinase named in endpoint) (Homo sapiens, UniProt P15056); conditions: 10 µM; read-out: Activity (%), B-Raf(h)
Summary of the method: as §1

[7] = target: panel of human kinases (kinase named in endpoint) (Homo sapiens, UniProt P15735); conditions: 10 µM; read-out: Activity (%), PhKγ2(h)
Summary of the method: as §1

[8] = target: panel of human kinases (kinase named in endpoint) (Homo sapiens, UniProt P24941); conditions: 10 µM
Summary of the method: as §1

[9] = target: panel of human kinases (kinase named in endpoint) (Homo sapiens, UniProt P36888); conditions: 10 µM; read-out: Activity (%), Flt3(h)
Summary of the method: as §1

[10] = target: panel of human kinases (kinase named in endpoint) (Homo sapiens, UniProt P42336, E545K); conditions: 10 µM; read-out: Activity (%), PI3(p110a(E545K)/p85a)
Summary of the method: as §1

[11] = target: panel of human kinases (kinase named in endpoint) (Homo sapiens, UniProt P42336, H1047R); conditions: 10 µM; read-out: Activity (%), PI3 Kinase (p110a(H1047R)/p85a)(h)
Summary of the method: as §1

[12] = target: panel of human kinases (kinase named in endpoint) (Homo sapiens, UniProt P48730); conditions: 10 µM; read-out: Activity (%), CK1δ(h)
Summary of the method: as §1

[13] = target: panel of human kinases (kinase named in endpoint) (Homo sapiens, UniProt P50750); conditions: 10 µM; read-out: Activity (%), CDK9/cyclin T1(h)
Summary of the method: as §1

[14] = target: panel of human kinases (kinase named in endpoint) (Homo sapiens, UniProt Q02750); conditions: 10 µM; read-out: Activity (%), MEK1(h)
Summary of the method: as §1

[15] = target: panel of human kinases (kinase named in endpoint) (Homo sapiens, UniProt Q04912); conditions: 10 µM; read-out: Activity (%), Ron(h)
Summary of the method: as §1

[16] = target: panel of human kinases (kinase named in endpoint) (Homo sapiens, UniProt Q07912); conditions: 10 µM; read-out: Activity (%), ACK1(h)
Summary of the method: as §1

[17] = target: panel of human kinases (kinase named in endpoint) (Homo sapiens, UniProt Q13557); conditions: 10 µM; read-out: Activity (%), CaMKIIδ(h)
Summary of the method: as §1

[18] = target: panel of human kinases (kinase named in endpoint) (Homo sapiens, UniProt Q15375); conditions: 10 µM; read-out: Activity (%), EphA7(h)
Summary of the method: as §1

[19] = target: panel of human kinases (kinase named in endpoint) (Homo sapiens, UniProt Q15831); conditions: 10 µM; read-out: Activity (%), LKB1(h)
Summary of the method: as §1

[20] = target: panel of human kinases (kinase named in endpoint) (Homo sapiens, UniProt Q16832); conditions: 10 µM; read-out: Activity (%), DDR2(h)
Summary of the method: as §1

[21] = target: panel of human kinases (kinase named in endpoint) (Homo sapiens, UniProt Q8TD19); conditions: 10 µM; read-out: Activity (%), NEK9(h)
Summary of the method: as §1

[22] = target: panel of human kinases (kinase named in endpoint) (Homo sapiens, UniProt Q8TF76); conditions: 10 µM; read-out: Activity (%), Haspin(h)
Summary of the method: as §1

[23] = target: panel of human kinases (kinase named in endpoint) (Homo sapiens, UniProt Q99755); conditions: 10 µM; read-out: Activity (%), PIP5K1a(h)
Summary of the method: as §1

[24] = target: panel of human kinases (kinase named in endpoint) (Homo sapiens, UniProt Q9UIK4); conditions: 10 µM; read-out: Activity (%), DAPK2(h)
Summary of the method: as §1

[25] = target: panel of human kinases (kinase named in endpoint) (Homo sapiens, UniProt Q9Y5S2); conditions: 10 µM; read-out: Activity (%), MRCKβ(h)
Summary of the method: as §1

panel of human kinases (kinase named in endpoint) (Homo sapiens, UniProt P48730), sequence (P48730 whole entry): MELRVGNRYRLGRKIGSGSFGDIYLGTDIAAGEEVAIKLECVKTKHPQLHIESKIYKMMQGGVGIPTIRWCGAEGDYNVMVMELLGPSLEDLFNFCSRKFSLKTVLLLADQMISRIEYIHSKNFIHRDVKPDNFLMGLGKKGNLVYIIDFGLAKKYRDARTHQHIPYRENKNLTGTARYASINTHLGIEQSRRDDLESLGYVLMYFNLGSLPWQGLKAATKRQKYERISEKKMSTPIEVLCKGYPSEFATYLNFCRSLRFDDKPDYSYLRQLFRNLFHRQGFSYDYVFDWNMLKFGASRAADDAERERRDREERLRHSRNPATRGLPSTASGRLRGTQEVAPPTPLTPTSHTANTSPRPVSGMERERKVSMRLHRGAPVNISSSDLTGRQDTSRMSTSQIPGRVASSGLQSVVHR
panel of human kinases (kinase named in endpoint) (Homo sapiens, UniProt Q02750), sequence (Q02750 whole entry): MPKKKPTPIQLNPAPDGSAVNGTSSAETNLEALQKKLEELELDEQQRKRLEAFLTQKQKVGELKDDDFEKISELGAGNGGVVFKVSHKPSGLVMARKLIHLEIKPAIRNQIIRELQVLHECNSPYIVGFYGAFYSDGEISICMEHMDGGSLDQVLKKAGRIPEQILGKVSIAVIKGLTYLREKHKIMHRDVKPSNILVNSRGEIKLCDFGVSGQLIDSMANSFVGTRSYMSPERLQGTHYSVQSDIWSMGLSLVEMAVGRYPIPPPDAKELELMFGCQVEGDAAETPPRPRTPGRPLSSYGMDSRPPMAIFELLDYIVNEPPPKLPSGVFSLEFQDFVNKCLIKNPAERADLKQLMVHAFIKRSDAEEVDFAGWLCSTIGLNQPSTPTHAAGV
panel of human kinases (kinase named in endpoint) (Homo sapiens, UniProt Q07912), sequence (Q07912 whole entry): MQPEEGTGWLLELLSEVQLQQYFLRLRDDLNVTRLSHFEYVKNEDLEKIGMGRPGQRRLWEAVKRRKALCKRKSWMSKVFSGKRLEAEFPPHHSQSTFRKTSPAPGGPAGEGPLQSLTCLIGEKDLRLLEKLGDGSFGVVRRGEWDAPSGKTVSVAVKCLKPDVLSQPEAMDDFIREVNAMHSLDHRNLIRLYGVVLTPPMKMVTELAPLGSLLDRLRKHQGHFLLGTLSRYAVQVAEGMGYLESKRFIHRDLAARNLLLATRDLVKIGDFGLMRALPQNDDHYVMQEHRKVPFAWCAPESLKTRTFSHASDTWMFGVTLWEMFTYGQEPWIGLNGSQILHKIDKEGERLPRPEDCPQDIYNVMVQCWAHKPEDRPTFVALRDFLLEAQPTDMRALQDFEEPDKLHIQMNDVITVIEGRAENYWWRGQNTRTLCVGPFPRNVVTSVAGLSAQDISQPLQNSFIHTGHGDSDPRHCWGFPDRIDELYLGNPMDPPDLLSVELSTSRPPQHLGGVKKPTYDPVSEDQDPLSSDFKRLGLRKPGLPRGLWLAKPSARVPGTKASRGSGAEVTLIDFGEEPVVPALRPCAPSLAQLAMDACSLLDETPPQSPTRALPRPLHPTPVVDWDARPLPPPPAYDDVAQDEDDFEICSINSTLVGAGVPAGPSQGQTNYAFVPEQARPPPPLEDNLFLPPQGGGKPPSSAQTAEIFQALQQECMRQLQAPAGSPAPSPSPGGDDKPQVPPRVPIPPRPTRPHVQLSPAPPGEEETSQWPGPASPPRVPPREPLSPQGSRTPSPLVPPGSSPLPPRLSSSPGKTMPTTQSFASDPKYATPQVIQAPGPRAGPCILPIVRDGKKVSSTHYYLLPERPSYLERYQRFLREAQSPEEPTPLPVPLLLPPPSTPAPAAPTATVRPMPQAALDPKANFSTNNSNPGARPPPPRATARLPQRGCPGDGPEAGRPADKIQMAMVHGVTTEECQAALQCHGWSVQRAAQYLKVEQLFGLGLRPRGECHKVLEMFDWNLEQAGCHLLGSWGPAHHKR
panel of human kinases (kinase named in endpoint) (Homo sapiens, UniProt P15056), sequence (P15056 whole entry): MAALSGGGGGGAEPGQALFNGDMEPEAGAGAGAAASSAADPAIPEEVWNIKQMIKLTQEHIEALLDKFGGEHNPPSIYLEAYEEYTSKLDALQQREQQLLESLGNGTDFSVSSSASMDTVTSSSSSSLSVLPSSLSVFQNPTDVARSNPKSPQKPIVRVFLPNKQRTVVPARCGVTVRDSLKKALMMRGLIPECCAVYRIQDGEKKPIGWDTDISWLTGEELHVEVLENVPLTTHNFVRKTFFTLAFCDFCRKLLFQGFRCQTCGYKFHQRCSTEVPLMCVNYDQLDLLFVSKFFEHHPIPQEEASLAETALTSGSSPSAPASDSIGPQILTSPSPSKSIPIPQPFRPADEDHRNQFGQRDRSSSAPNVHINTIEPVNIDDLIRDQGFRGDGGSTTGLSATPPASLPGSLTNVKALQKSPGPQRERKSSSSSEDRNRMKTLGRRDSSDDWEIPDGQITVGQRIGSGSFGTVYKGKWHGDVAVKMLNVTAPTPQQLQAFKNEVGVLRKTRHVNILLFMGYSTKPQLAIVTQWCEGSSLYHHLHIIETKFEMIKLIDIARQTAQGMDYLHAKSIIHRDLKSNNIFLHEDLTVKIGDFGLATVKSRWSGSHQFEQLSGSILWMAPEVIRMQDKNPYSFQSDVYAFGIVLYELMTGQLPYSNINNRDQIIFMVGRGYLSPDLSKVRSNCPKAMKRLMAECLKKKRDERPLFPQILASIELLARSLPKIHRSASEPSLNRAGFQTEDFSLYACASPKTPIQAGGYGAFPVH
panel of human kinases (kinase named in endpoint) (Homo sapiens, UniProt P36888), sequence (P36888 27-993): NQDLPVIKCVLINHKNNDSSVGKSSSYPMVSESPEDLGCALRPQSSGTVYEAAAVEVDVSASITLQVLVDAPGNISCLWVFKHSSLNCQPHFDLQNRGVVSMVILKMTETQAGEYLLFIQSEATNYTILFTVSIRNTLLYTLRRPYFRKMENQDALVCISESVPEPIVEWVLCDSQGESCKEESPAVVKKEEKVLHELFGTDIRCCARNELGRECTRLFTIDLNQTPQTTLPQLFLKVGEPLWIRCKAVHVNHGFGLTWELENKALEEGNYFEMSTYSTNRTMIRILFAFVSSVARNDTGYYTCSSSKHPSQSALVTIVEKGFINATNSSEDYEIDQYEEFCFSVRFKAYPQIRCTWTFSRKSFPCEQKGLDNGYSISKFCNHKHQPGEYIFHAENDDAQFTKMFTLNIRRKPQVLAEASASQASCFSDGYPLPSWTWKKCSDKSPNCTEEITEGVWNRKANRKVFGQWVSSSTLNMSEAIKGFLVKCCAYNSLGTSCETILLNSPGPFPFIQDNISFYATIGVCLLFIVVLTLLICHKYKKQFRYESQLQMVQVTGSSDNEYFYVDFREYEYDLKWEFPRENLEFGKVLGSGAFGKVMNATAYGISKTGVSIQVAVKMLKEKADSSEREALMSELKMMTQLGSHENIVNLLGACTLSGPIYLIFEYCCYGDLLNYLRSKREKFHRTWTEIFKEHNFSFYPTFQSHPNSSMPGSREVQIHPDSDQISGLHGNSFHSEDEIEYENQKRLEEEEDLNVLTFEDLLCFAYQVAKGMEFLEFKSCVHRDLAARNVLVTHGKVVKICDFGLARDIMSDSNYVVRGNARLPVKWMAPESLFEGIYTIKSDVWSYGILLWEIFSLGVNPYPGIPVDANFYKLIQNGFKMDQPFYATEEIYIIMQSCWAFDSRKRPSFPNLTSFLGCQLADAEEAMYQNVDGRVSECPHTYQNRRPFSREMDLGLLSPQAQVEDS
panel of human kinases (kinase named in endpoint) (Homo sapiens, UniProt Q15831), sequence (Q15831 whole entry): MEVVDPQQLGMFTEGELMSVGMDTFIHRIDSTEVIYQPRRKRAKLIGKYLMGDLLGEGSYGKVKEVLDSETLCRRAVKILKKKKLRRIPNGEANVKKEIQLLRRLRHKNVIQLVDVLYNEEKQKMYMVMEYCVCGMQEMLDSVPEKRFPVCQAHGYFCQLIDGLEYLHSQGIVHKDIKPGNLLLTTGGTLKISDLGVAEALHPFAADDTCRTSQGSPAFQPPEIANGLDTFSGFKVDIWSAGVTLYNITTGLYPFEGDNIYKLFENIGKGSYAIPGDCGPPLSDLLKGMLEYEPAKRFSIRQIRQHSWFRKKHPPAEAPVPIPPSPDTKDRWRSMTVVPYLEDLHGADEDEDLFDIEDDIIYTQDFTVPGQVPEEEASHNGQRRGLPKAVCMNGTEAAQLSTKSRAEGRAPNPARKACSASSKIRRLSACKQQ
panel of human kinases (kinase named in endpoint) (Homo sapiens, UniProt P50750), sequence (P50750 whole entry): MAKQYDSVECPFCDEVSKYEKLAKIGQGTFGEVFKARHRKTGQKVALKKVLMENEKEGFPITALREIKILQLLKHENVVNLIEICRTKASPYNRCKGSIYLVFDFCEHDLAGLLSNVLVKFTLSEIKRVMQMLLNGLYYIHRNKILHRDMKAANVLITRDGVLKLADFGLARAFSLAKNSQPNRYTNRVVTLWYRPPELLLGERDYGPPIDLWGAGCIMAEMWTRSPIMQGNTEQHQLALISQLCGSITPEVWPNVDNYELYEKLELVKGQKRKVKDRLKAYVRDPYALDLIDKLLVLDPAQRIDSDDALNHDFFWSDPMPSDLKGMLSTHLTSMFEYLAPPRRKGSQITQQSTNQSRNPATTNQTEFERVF
panel of human kinases (kinase named in endpoint) (Homo sapiens, UniProt O96017, R145W), sequence (O96017 whole entry R145W): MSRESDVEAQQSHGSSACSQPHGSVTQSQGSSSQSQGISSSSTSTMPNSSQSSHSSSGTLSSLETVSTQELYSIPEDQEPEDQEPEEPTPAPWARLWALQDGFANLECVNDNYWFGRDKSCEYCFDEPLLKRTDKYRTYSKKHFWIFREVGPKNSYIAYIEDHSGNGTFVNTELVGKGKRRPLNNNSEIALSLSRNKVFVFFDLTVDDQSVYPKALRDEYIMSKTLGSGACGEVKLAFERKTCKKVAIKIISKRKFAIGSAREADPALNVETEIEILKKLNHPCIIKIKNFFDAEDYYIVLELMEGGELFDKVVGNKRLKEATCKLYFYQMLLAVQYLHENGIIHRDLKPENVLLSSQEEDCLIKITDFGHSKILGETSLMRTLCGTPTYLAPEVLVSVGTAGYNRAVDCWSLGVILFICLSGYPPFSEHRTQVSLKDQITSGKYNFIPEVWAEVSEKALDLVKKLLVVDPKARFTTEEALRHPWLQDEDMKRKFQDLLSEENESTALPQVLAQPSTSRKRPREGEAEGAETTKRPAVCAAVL

CC(C)C(=O)Nc1nc2cc(-c3ccc4c(c3)c(C(=O)NC(C)c3ccccc3)cn4C)ccn2n1 (centres unmarked) [RI-962]
activity at 10 µM [1]: 115%
activity at 10 µM [2]: 100%
activity at 10 µM [3]: 99%
activity at 10 µM [4]: 119%
activity at 10 µM [5]: 142%
activity at 10 µM [6]: 99%
activity at 10 µM [7]: 93%
activity at 10 µM ([8]; read-out: Activity (%), CDK2/cyclinA(h)): 122%
activity at 10 µM ([8]; read-out: Activity (%), CDK2/cyclinE(h)): 92%
activity at 10 µM [9]: 87%
activity at 10 µM [10]: 96%
activity at 10 µM [11]: 99%
activity at 10 µM [12]: 108%
activity at 10 µM [13]: 67%
activity at 10 µM [14]: 105%
activity at 10 µM [15]: 104%
activity at 10 µM [16]: 100%
activity at 10 µM [17]: 92%
activity at 10 µM [18]: 100%
activity at 10 µM [19]: 105%
activity at 10 µM [20]: 126%
activity at 10 µM [21]: 85%
activity at 10 µM [22]: 107%
activity at 10 µM [23]: 106%
activity at 10 µM [24]: 104%
activity at 10 µM [25]: 79%

— paper PMC9653409, “Generative deep learning enables the discovery of a potent and selective RIPK1 inhibitor” (Nature Communications, 2022)
